According to paper PMC7069944, “Amino acid levels determine metabolism and CYP450 function of hepatocytes and hepatoma cell lines” (Nature Communications, 2020):
Values joined by “and” are separate entries in the source; they are usually repeats but may differ in a detail not shown here. Equal values may be shown once.

Experiments:
Conditions in all cases: repeat exposure
[1] = test system: HepG2; assay: Repeated-exposure DILI training compounds, resazurin conversion, HepG2
Experimental: (§1) To evaluate the ability to predict hepatotoxicity, we adapted the differentiation assays to a 384-well format. […] As a readout, we evaluated cell viability by resazurin conversion and correlated the results to therapeutic doses (Cmax values).
(§2) PSCs were differentiated in a 384-well format. […] As a negative control, 41 wells were left untreated. HepG2 were seeded at 40,000 cells per well. […] Cells were fixed with 4% PFA. […] Drugs were administrated after 8 h of attachment.

[2] = test system: HLC; assay: Repeated-exposure DILI training compounds, resazurin conversion, HLC
Experimental: as §1, §2

[3] = test system: HC3X; assay: Repeated-exposure DILI training compounds, resazurin conversion, HC3X
Experimental: as §1, §2

[4] = test system: HC6X; assay: Repeated-exposure DILI training compounds, resazurin conversion, HC6X
Experimental: as §1, §2

CN(C)C(=N)N=C(N)N [metformin]
% resazurin conversion ([1]; HepG2 AAGLY D30, 3 uM): 106.5% and 83.4% and 85.8% and 89.2% and 108.4% and 105.4% | % resazurin conversion ([1]; HepG2 AAGLY D30, 5 uM): 88% and 69.4% and 79.7% and 91.5% and 76.9% and 122.8% | % resazurin conversion ([1]; HepG2 AAGLY D30, 10 uM): 92.9% and 78.4% and 78.2% and 87.4% and 93.3% | % resazurin conversion ([1]; HepG2 AAGLY D30, 30 uM): 87% and 68% and 60.1% and 90.4% and 65.8% and 86.5% | % resazurin conversion ([1]; HepG2 AAGLY D30, 50 uM): 88% and 78.4% and 75.6% and 85.4% and 68.8% and 94.1% | % resazurin conversion ([1]; HepG2 AAGLY D30, 100 uM): 77.9% and 69.4% and 77.6% and 78.3% and 71.2% and 86.1% | % resazurin conversion ([1]; HepG2 AAGLY D30, 300 uM): 86.3% and 86.2% and 78.9% and 85.6% and 74.5% and 86.7% | % resazurin conversion ([1]; HepG2 AAGLY D30, 600 uM): 84.6% and 71.8% and 75.9% and 95.3% and 64.4% and 77.4% | % resazurin conversion ([1]; HepG2 AAGLY D30, 1200 uM): 73.9% and 67.2% and 67.9% and 98.6% and 62.2% and 57.6% | % resazurin conversion ([1]; HepG2 CTL D7, 3 uM): 101.7% | % resazurin conversion ([1]; HepG2 CTL D7, 5 uM): 111.2% and 104.6% and 117.2% and 107.8% and 111% and 112.7% | % resazurin conversion ([1]; HepG2 CTL D7, 10 uM): 105.8% and 104.6% and 92.9% and 101.2% and 94.9% and 100.3% | % resazurin conversion ([1]; HepG2 CTL D7, 30 uM): 99.1% and 100.4% and 105.9% and 109.1% and 102.2% | % resazurin conversion ([1]; HepG2 CTL D7, 50 uM): 97.6% and 97.7% and 100.3% and 99.5% and 102% and 100.6% | % resazurin conversion ([1]; HepG2 CTL D7, 100 uM): 101.5% and 103.6% and 107.4% and 101.8% and 103.4% and 105% | % resazurin conversion ([1]; HepG2 CTL D7, 300 uM): 89.7% and 83.5% and 88.5% and 95.8% and 93.1% and 96.3% | % resazurin conversion ([1]; HepG2 CTL D7, 600 uM): 92.6% and 88.6% and 89.1% and 90.3% and 94.1% and 93.8% | % resazurin conversion ([1]; HepG2 CTL D7, 1200 uM): 80.9% and 84% and 84.2% and 85.5% and 84.4% | % resazurin conversion ([2]; HLC AAGLY D40, 3 uM): 117.8% and 180.2% and 192.1% and 138.7% and 131.9% and 161.2% | % resazurin conversion ([2]; HLC AAGLY D40, 10 uM): 85.1% and 137.4% and 97.3% and 121% and 128.3% and 141.7% | % resazurin conversion ([2]; HLC LDM D40, 3 uM): 115.5% and 119.8% and 128.3% and 105.8% and 132.2% and 110.8% | % resazurin conversion ([2]; HLC LDM D40, 10 uM): 112.2% and 115.2% and 101.7% and 107.6% and 122.7% and 95.8% | % resazurin conversion ([2]; HLC LDM D40, 30 uM): 101.1% and 127.7% and 123.7% and 100.6% and 111.7% and 97.3% | % resazurin conversion ([2]; HLC LDM D40, 50 uM): 69.5% and 123.5% and 118.7% and 111% and 112.5% and 97.1% | % resazurin conversion ([2]; HLC LDM D40, 100 uM): 130.3% and 131.7% and 140% and 109.2% and 99.5% and 135.5% | % resazurin conversion ([2]; HLC LDM D40, 300 uM): 131.8% and 130.1% and 119.9% and 132.8% and 107.9% and 132.1% | % resazurin conversion ([2]; HLC LDM D40, 600 uM): 142.1% and 137.1% and 121.7% and 130.5% and 134.1% and 94.8% | % resazurin conversion ([2]; HLC LDM D40, 1200 uM): 117% and 113% and 129.7% and 145.7% and 140.5% and 102.5% | % resazurin conversion ([3]; HC3X AAGLY D40, 3 uM): 107.4% and 112.9% and 102.8% and 86.5% and 93.5% and 86.7% | % resazurin conversion ([3]; HC3X AAGLY D40, 5 uM): 117.3% and 115.7% and 110.3% and 104.4% and 106.7% and 61.4% | % resazurin conversion ([3]; HC3X AAGLY D40, 10 uM): 108.5% and 87.5% and 112.1% and 74.4% and 97.6% and 102.3% | % resazurin conversion ([3]; HC3X AAGLY D40, 30 uM): 105.4% and 101.2% and 96.4% and 131.5% and 86.6% and 96.2% | % resazurin conversion ([3]; HC3X AAGLY D40, 50 uM): 110.2% and 114.4% and 75% and 103.1% and 92.6% and 99.9% | % resazurin conversion ([3]; HC3X AAGLY D40, 300 uM): 121.9% and 148% and 124.4% and 102.2% and 122.5% and 91.9% | % resazurin conversion ([3]; HC3X AAGLY D40, 600 uM): 150.2% and 156.7% and 145.2% and 144.4% and 152.7% and 115% | % resazurin conversion ([3]; HC3X AAGLY D40, 1200 uM): 124.1% and 158.2% and 141.5% and 92.2% and 126.1% and 100% | % resazurin conversion ([4]; HC6X AAGLY D40, 3 uM): 75.6% and 127.9% and 120.9% and 66.8% and 78.3% and 77.4% | % resazurin conversion ([4]; HC6X AAGLY D40, 10 uM): 91.8% and 85.1% and 137.3% and 90.8% and 71.9% and 90% | % resazurin conversion ([4]; HC6X AAGLY D40, 30 uM): 64% and 86.6% and 97% and 73.8% and 121% and 127.4% | % resazurin conversion ([4]; HC6X AAGLY D40, 50 uM): 73.2% and 144.6% and 104.7% and 102.8% and 73.1% and 92.5% | % resazurin conversion ([4]; HC6X AAGLY D40, 100 uM): 106.4% and 149.7% and 103.6% and 154.2% and 106.5% and 116.8% | % resazurin conversion ([4]; HC6X AAGLY D40, 300 uM): 112.1% and 78.2% and 96.7% and 122.1% and 97.1% and 124% | % resazurin conversion ([4]; HC6X AAGLY D40, 1200 uM): 183.8% and 127.4% and 126.7% and 100% and 123.1% | % resazurin conversion ([4]; HC6X AAGLY D40 Remove dox, 3 uM): 170.2% and 195.5% and 109.9% and 145.7% and 191.7% and 155.1% | % resazurin conversion ([4]; HC6X AAGLY D40 Remove dox, 5 uM): 151.1% and 130.1% and 149.6% and 123.6% and 100% and 119.7% | % resazurin conversion ([4]; HC6X AAGLY D40 Remove dox, 10 uM): 137.7% and 116.6% and 122.1% and 87.2% and 162.4% | % resazurin conversion ([4]; HC6X AAGLY D40 Remove dox, 30 uM): 189% and 104.3% and 104.5% and 116.4% and 109.9% and 115% | % resazurin conversion ([4]; HC6X AAGLY D40 Remove dox, 50 uM): 175.2% and 137% and 132.8% and 158.7% and 156.7% and 106.3% | % resazurin conversion ([4]; HC6X AAGLY D40 Remove dox, 100 uM): 169.7% and 178.1% and 127.2% and 203.2% and 156.7% and 201.6% | % resazurin conversion ([4]; HC6X AAGLY D40 Remove dox, 300 uM): 161.6% and 125.1% and 195.3% and 144.9% and 140.1% | % resazurin conversion ([4]; HC6X AAGLY D40 Remove dox, 600 uM): 164.3% and 170.2% and 157.3% and 178.7% and 172.2% and 213.4% | % resazurin conversion ([4]; HC6X AAGLY D40 Remove dox, 1200 uM): 129.6% and 183.1% and 151.5% and 181.6% and 201.4% and 154.1%
